Laboratory results published in patent publication US20080085264A1, “METHODS FOR ENHANCING STEM CELL ENGRAFTMENT DURING TRANSPLANTATION” (priority 2003, published 2008).

Test system: BoyJ irradiated mice
Experiment: Competitive repopulation assay
Format: in vivo, mouse
Details: six months post transplant, 5×10^5 or 2.5×10^5 donor cells vs 5×10^5 competitor BoyJ cells
From the text: Donor LDBM cells (5×10^5) from representative mice from each test group were transplanted into lethally irradiated BoyJ mice (expressing CD45.1) Quantitative contribution to chimerism was obtained 2-6 months post-transplantation in the same manner described for long-term engraftment assays.
Eight week old female recipient mice were lethally irradiated (1100 cGy split dose) prior to transplantation as previously described (Haneline L S, et al. Blood. 1999; 94:1-8). Limiting dilutions of donor LD BM cells (5×10^5, 2.5×10^5, 1.25×10^5, and 0.625×10^5 cells) from control C57Bl/6 mice, CD26-inhibitor treated LD BM cells, or untreated LD BM cells from CD26^−/− mice (all expressing CD45.2) are co-transplanted with a constant number (5×10^5) of pooled competitive BM cells from congenic BoyJ mice (expressing CD45.1), into BoyJ irradiated mice. To determine quantitatively the relative cell contribution to chimerism of each test cell population tail-vein blood samples were obtained post-transplantation each month for three months and CD45.1 and CD45.2 was measured by flow-cytometry. Cells were divided into CD26 inhibitor (either Diprotin A or Val-Pyr) treated or untreated groups obtained from normal C57BL/6 mice and untreated cells obtained from CD26^−/− mice. […]

In the case of Ile-Pro-Ile [Diprotin A], the “donor contribution to chimerism” value is reported as “increased donor contribution to chimerism”.
